Some test systems named below: HCT-15 colon; SR leukemia; SF-268 CNS; CCRF-CEM leukemia; UO-31 renal; SNB-75 CNS; TK-10 renal; SK-OV-3 ovarian.
Common to all, as to assay: NCI anticancer screen, dose series, 48 h

Values joined by “and” are separate entries in the source; they are usually repeats but may differ in a detail not shown here. Equal values may be shown once.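 Dose response: 5 concentrations. Exposure: 48 h. Format: 96-well plates. Endpoint: linear interpolation; highest concentration if not reached. GI50: concentration for 50% inhibition of growth. Definition used: TGI = concentration required for complete inhibition of growth.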 Bounds are passed on as bounds.

Consider `CCOC(=O)c1c(-c2ccc(OC)c(O)c2)c(C#N)c(=S)n(C2OC(COC(C)=O)C(OC(C)=O)C(OC(C)=O)C2OC(C)=O)c1-c1ccccc1` (stereo not given), for which the GI50 with HCT-15 colon is 43.1 µM and > 100 µM; in the assay on SF-268 CNS, 34 µM and > 100 µM; in the assay with CCRF-CEM leukemia, 47.2 µM and > 100 µM; with UO-31 renal, 37 µM and > 100 µM. Also, the TGI in the assay on HCT-15 colon, in the assay on SR leukemia, in the assay on SF-268 CNS, in the assay with CCRF-CEM leukemia and in the assay on UO-31 renal was more than 100 µM in each case.

Consider `C/C(CC(C)(C)N1CC1)=N\NC(=O)Nc1cccc2ccccc12`, for which the GI50 with HCT-15 colon was 3.24 µM; in the assay with SR leukemia, 2.02 µM; in the assay on SF-268 CNS, 3.72 µM; in the assay on SNB-75 CNS, 2.62 µM; with TK-10 renal, 2.81 µM; in the assay on CCRF-CEM leukemia, 2.37 µM. Besides, the GI50 with UO-31 renal was 2.58 µM. Besides, the TGI in the assay on HCT-15 colon was 17.4 µM; in the assay on SR leukemia, 6.13 µM; in the assay with SF-268 CNS, 16.2 µM; with SNB-75 CNS, 13.8 µM; with TK-10 renal, 7.23 µM; in the assay with CCRF-CEM leukemia it was 20.6 µM. Besides, the TGI with UO-31 renal turned out to be 12.2 µM.

Regarding `CCn1c(SCC(=O)Nc2cc(C(F)(F)F)ccc2Cl)nc2ccccc2c1=O`, the GI50 in the assay on HCT-15 colon was 8.46 µM; with SK-OV-3 ovarian, 14.6 µM; in the assay with SR leukemia it was more than 100 µM; in the assay with SF-268 CNS it was 41.2 µM; in the assay on SNB-75 CNS it was 17.1 µM; with TK-10 renal, 23.7 µM. For the same compound, the GI50 in the assay on UO-31 renal is 28.4 µM. The TGI in the assay with HCT-15 colon is more than 100 µM; with SK-OV-3 ovarian, 30.9 µM; with SR leukemia it was more than 100 µM; with SF-268 CNS it was more than 100 µM; in the assay with SNB-75 CNS, 53.8 µM; with TK-10 renal, 66.2 µM. Besides, the TGI in the assay with UO-31 renal was more than 100 µM.

`CCCCC(OC(=O)c1ccc(N)cc1)C(=O)Nc1nc(CC(=O)OCC)cs1` (stereo not given): the GI50 is 40.2 µM in the assay on HCT-15 colon; 29.1 µM in the assay on SK-OV-3 ovarian; 42.8 µM in the assay with SR leukemia; 43.5 µM with SF-268 CNS; 35.2 µM with SNB-75 CNS; 40 µM in the assay with TK-10 renal. The GI50 in the assay with UO-31 renal was 40.9 µM. Further, the TGI in the assay on HCT-15 colon, in the assay on SK-OV-3 ovarian, in the assay on SR leukemia, with SF-268 CNS, in the assay on SNB-75 CNS and in the assay on TK-10 renal was more than 100 µM each time. In addition, the TGI in the assay with UO-31 renal is more than 100 µM.

As for `O=C(O)CN1C(=O)CN=C(c2ccccn2)c2cc(Cl)ccc21`, the TGI in the assay with HCT-15 colon, in the assay on SK-OV-3 ovarian, with SR leukemia, in the assay on SF-268 CNS, in the assay on SNB-75 CNS and in the assay on TK-10 renal was more than 100 µM throughout. This compound gave a TGI with UO-31 renal of more than 100 µM.

Take `CCN(CC)CCCNc1n[n+]([O-])c2ccccc2[n+]1[O-]`: the TGI in the assay with HCT-15 colon is 31.5 µM; in the assay on SR leukemia it was 76.2 µM; in the assay on SF-268 CNS, more than 100 µM; in the assay on SNB-75 CNS, 77.1 µM; in the assay on TK-10 renal, 39 µM; in the assay on CCRF-CEM leukemia it was more than 100 µM. For the same compound, the TGI with UO-31 renal is more than 100 µM.

With `OCCN(CCO)c1nc(N2CCCCC2)c2nc(N(CCO)CCO)nc(N3CCCCC3)c2n1`, the TGI with HCT-15 colon was more than 100 µM; in the assay on SR leukemia, 22.2 µM; with TK-10 renal, 64.6 µM; in the assay with CCRF-CEM leukemia, more than 100 µM; in the assay with UO-31 renal, more than 100 µM.

Consider `NNc1nc2ccccc2o1`, for which the TGI in the assay with HCT-15 colon, in the assay with SR leukemia, with SF-268 CNS, with SNB-75 CNS, in the assay with TK-10 renal and in the assay with CCRF-CEM leukemia was more than 100 µM in each case. This compound displayed a TGI with UO-31 renal of more than 100 µM.

Regarding `Cc1nc2ccccc2c(/C=C/c2ccccc2)c1C(=O)/C=C/c1ccc(C(F)(F)F)cc1`, the GI50 in the assay with HCT-15 colon is 0.721 µM; in the assay with SR leukemia it was 0.38 µM; with SNB-75 CNS, 1.44 µM; in the assay with TK-10 renal it was 2.35 µM; in the assay with CCRF-CEM leukemia, 0.381 µM; with UO-31 renal it was 1.07 µM. Besides, the TGI with HCT-15 colon is 3.28 µM; in the assay on SR leukemia, more than 100 µM; in the assay with SNB-75 CNS it was 2.82 µM; with TK-10 renal, 4.04 µM; in the assay on CCRF-CEM leukemia, more than 100 µM; in the assay on UO-31 renal, 2.26 µM.

In the case of `O=S(=O)(O)n1ccnc1` (tested in a mixture with another compound), the TGI with HCT-15 colon, in the assay with SK-OV-3 ovarian, in the assay with SR leukemia, with SF-268 CNS, with SNB-75 CNS and with TK-10 renal was more than 100 µM in each case. In the assay with UO-31 renal, this compound came in with a TGI of more than 100 µM.

Take `Cc1ccc2[nH]c(C(=O)NN3C(=O)C(C)SC34CCC(C)CC4)c(-c3ccccc3)c2c1` (stereo not given): the GI50 in the assay with HCT-15 colon was 19.4 µM; in the assay on SK-OV-3 ovarian, 33.4 µM; with SF-268 CNS, 14.9 µM; in the assay with SNB-75 CNS, 24.4 µM; in the assay with TK-10 renal, 14.2 µM; with CCRF-CEM leukemia it was 20.4 µM. In the assay on UO-31 renal, the GI50 is 14 µM. In addition, the TGI in the assay on HCT-15 colon is 53.1 µM; in the assay with SK-OV-3 ovarian, more than 100 µM; in the assay with SF-268 CNS it was 35.5 µM; in the assay on SNB-75 CNS, 51.4 µM; in the assay on TK-10 renal, 29.6 µM; in the assay on CCRF-CEM leukemia, 79.6 µM. In addition, the TGI with UO-31 renal turned out to be 29.4 µM.

Source of the values: PubChem BioAssay (NCI).
